# Measurements taken from patent US9422293B2 (priority 2006, dated 2016).
# Where a name gives a salt, the structure may show the parent alone.
# Biological target: rat TRPV1 (Rattus norvegicus (Rat), UniProt O35433)
# Settings: read-out: Rat IC50
# Chain of rat TRPV1 (O35433 whole entry): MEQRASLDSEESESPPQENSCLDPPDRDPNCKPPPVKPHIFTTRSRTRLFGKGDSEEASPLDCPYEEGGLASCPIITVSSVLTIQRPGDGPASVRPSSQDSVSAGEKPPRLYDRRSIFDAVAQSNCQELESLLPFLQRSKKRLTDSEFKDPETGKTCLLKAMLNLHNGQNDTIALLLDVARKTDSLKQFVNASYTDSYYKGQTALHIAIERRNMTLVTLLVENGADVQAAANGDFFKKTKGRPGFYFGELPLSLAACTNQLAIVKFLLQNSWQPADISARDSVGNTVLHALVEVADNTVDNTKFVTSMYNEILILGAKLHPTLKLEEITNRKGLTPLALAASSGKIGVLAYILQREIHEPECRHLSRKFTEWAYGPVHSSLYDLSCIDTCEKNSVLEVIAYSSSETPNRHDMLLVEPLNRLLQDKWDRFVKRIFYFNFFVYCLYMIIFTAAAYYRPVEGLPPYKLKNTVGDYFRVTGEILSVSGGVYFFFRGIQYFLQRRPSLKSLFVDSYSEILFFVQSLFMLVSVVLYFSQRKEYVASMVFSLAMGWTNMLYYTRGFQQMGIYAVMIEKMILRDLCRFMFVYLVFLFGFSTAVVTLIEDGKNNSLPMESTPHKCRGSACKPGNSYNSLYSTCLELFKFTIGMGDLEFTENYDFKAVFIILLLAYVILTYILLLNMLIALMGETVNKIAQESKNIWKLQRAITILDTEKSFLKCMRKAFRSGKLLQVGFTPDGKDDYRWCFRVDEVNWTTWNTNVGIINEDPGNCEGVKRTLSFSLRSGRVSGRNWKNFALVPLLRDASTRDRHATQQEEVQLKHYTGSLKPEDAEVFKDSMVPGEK
row,SMILES,IC50 [nM]
1,"COC(=O)C(C)(C)c1ccc(Nc2nc(N3CCCCC3)nc3c2CCN(c2ncccc2C(F)(F)F)CC3)cc1 [Example 175, Methyl 2-methyl-2-[4-({2-piperidin-1-yl-7-[3-(trifluoromethyl)pyridin-2-yl]-6,7,8,9-tetrahydro-5H-pyrimido[4,5-d]azepin-4-yl}amino)phenyl]propanoate]",80
2,"OC[C@@H]1CCCN1c1nc2c(c(Nc3ccc(C(F)(F)F)cc3)n1)CCN(c1ncccc1C(F)(F)F)CC2 [Example 260, [(2S)-1-(4-{[4-(Trifluoromethyl)phenyl]amino}-7-[3-(trifluoromethyl)pyridin-2-yl]-6,7,8,9-tetrahydro-5H-pyrimido[4,5-d]azepin-2-yl)pyrrolidin-2-yl]methanol hydrochloride salt]",50
3,"COC(=O)c1ccc(Nc2nc(N3CCCCC3)nc3c2CCN(c2ncccc2C(F)(F)F)CC3)cc1 [Example 387, 4-[2-Piperidin-1-yl-7-(3-trifluoromethyl-pyridin-2-yl)-6,7,8,9-tetrahydro-5H-pyrimido[4,5-d]azepin-4-ylamino]-benzoic acid methyl ester]",550
4,"CC(C)c1nc2c(c(Nc3ccc(S(=O)(=O)C(F)(F)F)cc3)n1)CCN(c1ncccc1C(F)(F)F)CC2 [Example 101B, [2-Isopropyl-7-(3-trifluoromethyl-pyridin-2-yl)-6,7,8,9-tetrahydro-5H-pyrimido[4,5-d]azepin-4-yl]-(4-trifluoromethanesulfonyl-phenyl)-amine trifluoroacetic acid salt]",990
5,"FC(F)(F)c1ccc(Nc2nc(N[C@@H]3CCOC3)nc3c2CCN(c2ncccc2C(F)(F)F)CC3)nc1 [Example 263, N^2-[(3R)-Tetrahydrofuran-3-yl]-7-[3-(trifluoromethyl)pyridin-2-yl]-N^4-[5-(trifluoromethyl)pyridin-2-yl]-6,7,8,9-tetrahydro-5H-pyrimido[4,5-d]azepine-2,4-diamine]",1460
6,"CC(C)(C)c1ccc(Nc2nc(N3CCC3)nc3c2CCN(c2ncccc2C(F)(F)F)CC3)cc1 [Example 249, 2-Azetidin-1-yl-N-[4-(1,1-dimethylethyl)phenyl]-7-[3-(trifluoromethyl)pyridin-2-yl]-6,7,8,9-tetrahydro-5H-pyrimido[4,5-d]azepin-4-amine]",830
7,"CN1CCCc2ccc(Nc3nc(OC4CCOCC4)nc4c3CCN(c3ncccc3C(F)(F)F)CC4)cc21 [Example 329, N-(1-Methyl-1,2,3,4-tetrahydroquinolin-7-yl)-2-(tetrahydro-2H-pyran-4-yloxy)-7-[3-(trifluoromethyl)pyridin-2-yl]-6,7,8,9-tetrahydro-5H-pyrimido[4,5-d]azepin-4-amine]",120
8,"CC(C)c1nc2c(c(Nc3cnc4ccccc4c3)n1)CCN(c1ncccc1C(F)(F)F)CC2 [Example 21, [2-Isopropyl-7-(3-trifluoromethyl-pyridin-2-yl)-6,7,8,9-tetrahydro-5H-pyrimido[4,5-d]azepin-4-yl]-quinolin-3-yl-amine]",1100
9,"FC(F)(F)c1ccc(Nc2nc(N3CCCCC3)nc3c2CCN(c2ncccc2C(F)(F)F)CC3)nc1Cl [Example 390, (6-Chloro-5-trifluoromethyl-pyridin-2-yl)-[2-piperidin-1-yl-7-(3-trifluoromethyl-pyridin-2-yl)-6,7,8,9-tetrahydro-5H-pyrimido[4,5-d]azepin-4-yl]-amine]",90
10,"Cc1nc2ccccc2nc1N1CCc2nc(C(C)C)nc(Nc3ccc(C(C)(C)C)cc3)c2CC1 [Example 33, (4-tert-Butyl-phenyl)-[2-isopropyl-7-(3-methyl-quinoxalin-2-yl)-6,7,8,9-tetrahydro-5H-pyrimido[4,5-d]azepin-4-yl]-amine]",110
11,"CSc1nc2c(c(Nc3ccc(C(F)(F)F)nc3)n1)CCN(c1ncccc1C(F)(F)F)CC2 [Example 75B, [2-Methylsulfanyl-7-(3-trifluoromethyl-pyridin-2-yl)-6,7,8,9-tetrahydro-5H-pyrimido[4,5-d]azepin-4-yl]-(6-trifluoromethyl-pyridin-3-yl)-amine trifluoroacetic acid salt]",40
12,"CN1CCC(C)(C)c2ccc(Nc3nc(SCc4ccccc4)nc4c3CCN(c3ncccc3C(F)(F)F)CC4)cc21 [Example 370, 2-[(Phenylmethyl)sulfanyl]-7-[3-(trifluoromethyl)pyridin-2-yl]-N-(1,4,4-trimethyl-1,2,3,4-tetrahydroquinolin-7-yl)-6,7,8,9-tetrahydro-5H-pyrimido[4,5-d]azepin-4-amine]",2610
13,"CN1CCC(C)(C)c2ccc(Nc3nc(Sc4ccccc4)nc4c3CCN(c3ncccc3C(F)(F)F)CC4)cc21 [Example 352, 2-(Phenylsulfanyl)-7-[3-(trifluoromethyl)pyridin-2-yl]-N-(1,4,4-trimethyl-1,2,3,4-tetrahydroquinolin-7-yl)-6,7,8,9-tetrahydro-5H-pyrimido[4,5-d]azepin-4-amine]",> 6670
14,"CC(C)(C)c1ccc(Nc2ncnc3c2CCN(c2nncc4ccccc24)CC3)cc1 [Example 37, (4-tert-Butyl-phenyl)-(7-phthalazin-1-yl-6,7,8,9-tetrahydro-5H-pyrimido-[4,5-d]azepin-4-yl)-amine]",150
15,"CC(O)(c1ccc(Nc2nc(N3CCCCC3)nc3c2CCN(c2ncccc2C(F)(F)F)CC3)cc1)C(F)(F)F (centres unmarked) [Example 180, 1,1,1-Trifluoro-2-[4-({2-piperidin-1-yl-7-[3-(trifluoromethyl)pyridin-2-yl]-6,7,8,9-tetrahydro-5H-pyrimido[4,5-d]azepin-4-yl}amino)phenyl]propan-2-ol]",> 6670
16,"CC(C)c1nc2c(c(Nc3ccc4nsnc4c3)n1)CCN(c1ncccc1C(F)(F)F)CC2 [Example 148, Benzo[1,2,5]thiadiazol-5-yl-[2-isopropyl-7-(3-trifluoromethyl-pyridin-yl)-6,7,8,9-tetrahydro-5H-pyrimido[4,5-d]azepin-4-yl]-amine]",2170
17,"CC(C)c1nc2c(c(Nc3ccc(C(O)C(F)(F)F)cc3)n1)CCN(c1ncccc1C(F)(F)F)CC2 (centres unmarked) [Example 183, 2,2,2-Trifluoro-1-[4-({2-(1-methylethyl)-7-[3-(trifluoromethyl)pyridin-2-yl]-6,7,8,9-tetrahydro-5H-pyrimido[4,5-d]azepin-4-yl}amino)phenyl]ethanol]",2370
18,"CC(C)c1nc2c(c(Nc3ccc(C(C)(C)O)cc3)n1)CCN(c1ncccc1C(F)(F)F)CC2 [Example 178, 2-[4-({2-(1-Methylethyl)-7-[3-(trifluoromethyl)pyridin-2-yl]-6,7,8,9-tetrahydro-5H-pyrimido[4,5-d]azepin-4-yl}amino)phenyl]propan-2-ol]",110
19,"FC(F)(F)c1ccc(Nc2nc(SCc3ccccc3)nc3c2CCN(c2ncccc2C(F)(F)F)CC3)cc1 [Example 353, 2-[(Phenylmethyl)sulfanyl]-N-[4-(trifluoromethyl)phenyl]-7-[3-(trifluoromethyl)pyridin-2-yl]-6,7,8,9-tetrahydro-5H-pyrimido[4,5-d]azepin-4-amine]",240

# Same assay, conditions: read-out: Rat IC50; hydrochloride salt
row,SMILES,IC50 [nM]
1,"FC(F)(F)c1ccc(Nc2nc(N3CCOCC3)nc3c2CCN(c2ncccc2C(F)(F)F)CC3)cc1 [Example 40A, [2-Morpholin-4-yl-7-(3-trifluoromethyl-pyridin-2-yl)-6,7,8,9-tetrahydro-5H-pyrimido[4,5-d]azepin-4-yl]-(4-trifluoromethyl-phenyl)-amine hydrochloride salt]",[…]
